Series [1] in a line: Intrinsic dissolution rate. In kind it is physicochemical. How it is done: Approximately 100 mg of the pure test compound was compressed under high pressure (7 ton), using a constructed die. No additives were added, thus avoiding any external interference in the intrinsic dissolution profile. The resulting non-disintegrating disc was transferred to the dissolution apparatus, Distek model 5100 premiere dissolution system, containing 900 mL of pH 5 buffer with 15 mM hexadecyl trimethyl ammonium bromide (HTAB), pre-heated to 37° C. The stirring speed of the paddle was set to 50 rpm. The solution was sampled at set time points with the resulting aliquots analyzed directly by HPLC, with reference to standard solutions. 5 standards, with concentrations ranging from 0.03 to 0.005 mg/mL in deionized water, and the sample solutions were injected, together with blank injections of the deionized water. The concentration was calculated using the peak areas determined by integration of the peak found at the same retention time as the principal peak in the standard injection.

Series [2] is described as follows: Modulated differential scanning calorimetry (mDSC). The series is classed as physicochemical. The note with it: mDSC thermogram, FIG. 4. How it is done:
DSC data were collected on a TA Instruments Q2000 equipped with a 50 position autosampler. Similar instruments can be used to collect DSC data. The calibration for thermal capacity was carried out using sapphire and the calibration for energy and temperature was carried out using certified indium. Modulated temperature DSC was carried out using an underlying heating rate of 2° C./min and temperature modulation parameters of ±1.2° C. (amplitude) every 60 seconds (period). Typically 0.5-3 mg of each sample, in a pin-holed aluminum pan, was heated at […] from 25° C. to 220° C. A purge of dry nitrogen at 50 ml/min was maintained over the sample. The instrument control software was Advantage for Q Series v2.8.0.392 and Thermal Advantage v4.8.3 and the data were analyzed using Universal Analysis v4.4A.
(In general: Differential scanning calorimetry records heat flow against a reference as temperature is scanned.)

Series [3] is described as follows: Solid-state stability / polymorph conversion followed by XRPD. The series is classed as physicochemical. The note with it: for thermodynamic stability: Form 1A versus Form 1B. Here is the method:
X-Ray Powder Diffraction patterns were collected on a Bruker AXS C2 GADDS diffractometer using Cu Kα radiation (40 kV, 40 mA), automated XYZ stage, laser video microscope for auto-sample positioning and a HiStar 2-dimensional area detector. X-ray optics consists of a single Gael multilayer mirror coupled with a pinhole collimator of 0.3 mm. A weekly performance check was carried out using a certified standard NIST 1976 Corundum (flat plate). Similar instruments can be used to obtain XRPD patterns.
The beam divergence, i.e. the effective size of the X-ray beam on the sample, was approximately 4 mm. A θ-θ continuous scan mode was employed with a sample—detector distance of 20 cm which gives an effective 2θ range of 3.2°-29.7°. The samples were exposed to the X-ray beam for approximately 120 seconds. The software used for data collection was GADDS for WNT 4.1.16 and the data were analyzed and presented using Diffrac Plus EVA v11.0.0.2 or v13.0.0.2.
Samples run under ambient conditions were prepared as flat plate specimens using powder as received without grinding. Approximately 1-2 mg of the sample was lightly pressed on a glass slide to obtain a flat surface.

In series [4] the test system is Gram-negative and Gram-negative bacteria. Particulars: cited from earlier work.
Series [5] concerns topoisomerase and gyrase. The note with it: cited from earlier work.
For series [6] the following is noted: Phase 2 trials, nearly 1,400 patients; cited from earlier work.
The conditions of series [7]: over the parent acid; cited from earlier work.

The text below walks through data of patent US20160046603A1, “Crystalline Forms of D-Glucitol, 1-Deoxy-1-(Methylamino)-, 1-(6-Amino-3,5-Difluoropyridine-2-Yl)-8-Chloro-6-Fluoro-1,4-Dihydro-7-(3-Hydroxyazetidin-1-Yl)-4-Oxo-3-Quinolinecarboxylate” (MELINTA THERAPEUTICS, INC., priority 2013, published 2016).

In the case of `CNC[C@H](O)[C@@H](O)[C@H](O)[C@H](O)CO.Nc1nc(-n2cc(C(=O)O)c(=O)c3cc(F)c(N4CC(O)C4)c(Cl)c32)c(F)cc1F` [Form 1B, D-glucitol, 1-deoxy-1-(methylamino)-, 1-(6-amino-3,5-difluoropyridin-2-yl)-8-chloro-6-fluoro-1,4-dihydro-7-(3-hydroxyazetidin-1-yl)-4-oxo-3-quinolinecarboyxlate], the “initial dissolution rate (intrinsic dissolution profile)” value in series [1] (compressed disc, 900 mL pH 5 buffer with 15 mM HTAB, 37° C., 50 rpm, compared with the other phase) is given as “significantly faster initial dissolution rates”. Moreover, the “dissociation to the free acid post IDR” value in series [1] (confirmed by 1H NMR analyses post IDR) is given as “almost complete dissociation to the free acid”. The “non-reversible transition of Form 1B to Form 1A” value in series [2] was “about 94 °C”. In addition, the thermodynamic stability result in series [3] was “metastable”. In addition, the “conversion of polymorphic form” value in series [3] (exposure to humidity and heat, followed by XRPD b-axis reflections) was “converts to crystalline anhydrous Form 1A delafloxacin meglumine on exposure to humidity and heat”.

Consider `Nc1nc(-n2cc(C(=O)O)c(=O)c3cc(F)c(N4CC(O)C4)c(Cl)c32)c(F)cc1F` [Delafloxacin, 1-deoxy-1-(methylamino)-, 1-(6-amino-3,5-difluoropyridin-2-yl)-8-chloro-6-fluoro-1,4-dihydro-7-(3-hydroxyazetidin-1-yl)-4-oxo-3-quinolinecarboyxlate], for which the potency against bacteria entry in series [4] is on record as “highly potent”. In series [5], the “inhibition of topoisomerase and gyrase enzyme targets” value is listed as “balanced inhibition”. Besides, the tolerance and safety result in series [6] is “good tolerance and safety”.

As for `CNC[C@H](O)[C@@H](O)[C@H](O)[C@H](O)CO.Nc1nc(-n2cc(C(=O)O)c(=O)c3cc(F)c(N4CC(O)C4)c(Cl)c32)c(F)cc1F` [Form 1A, D-glucitol, 1-deoxy-1-(methylamino)-, 1-(6-amino-3,5-difluoropyridin-2-yl)-8-chloro-6-fluoro-1,4-dihydro-7-(3-hydroxyazetidin-1-yl)-4-oxo-3-quinolinecarboyxlate], the dissolution characteristics result in series [1] (Form 1A versus Form 1B) was “improved dissolution characteristics”. Also, in series [3], the thermodynamic stability entry is given as “thermodynamic stability over Form 1B”.

`CNC[C@H](O)[C@@H](O)[C@H](O)[C@H](O)CO.Nc1nc(-n2cc(C(=O)O)c(=O)c3cc(F)c(N4CC(O)C4)c(Cl)c32)c(F)cc1F` [D-glucitol, 1-deoxy-1-(methylamino)-, 1-(6-amino-3,5-difluoropyridin-2-yl)-8-chloro-6-fluoro-1,4-dihydro-7-(3-hydroxyazetidin-1-yl)-4-oxo-3-quinolinecarboyxlate]: the “solubility, dissolution and bioavailability” value in series [7] was “improved solubility, dissolution and bioavailability”.
